According to patent EP0293814A1, “Mono- and polyhydroxyacyl derivatives of polyoxygenated labdanes, a process for their production and their use as drugs” (HOECHST AKTIENGESELLSCHAFT, priority 1987, dated 1988):

Experiment: Lowering of intraocular pressure, Schiotz tonometry
Assay type: in vivo
Description: Die Labdane der vorliegenden Anmeldung eignen sich zur Behandlung des erhöhten Augeninnendrucks, weil sie, wie mit der Schiotz-Tonometrie nachgewiesen, die Eigenschaft besitzen, den Augeninnendruck herabzusetzen (s. Capriol. J., Sears, M., Lancet, 1, (1983) 958 - 96).
Die Wirksamkeit einiger repräsentativer Verbindungen gemäß der Erfindung ist als prozentuale Senkung des Augeninnendrucks ausgedrückt und in Tab. 2 dargestellt.

| Structure (SMILES) | Senkung des Augeninnendrucks (%) (Konzentration 2 %) | Senkung des Augeninnendrucks (%) (Konzentration 0,1 %) | Senkung des Augeninnendrucks (%) (Konzentration 0,5 %) | Senkung des Augeninnendrucks (%) (Konzentration 0,25 %) | Erniedrigung des Augeninnendrucks (in words, compared with the other substances of the invention (Tab. 2)) |
| --- | --- | --- | --- | --- | --- |
| C=C[C@@]1(C)CC(=O)[C@]2(O)[C@@]3(C)[C@@H](O)CCC(C)(C)[C@@H]3[C@H](OC(=O)COCC)[C@H](O)[C@@]2(C)O1 [compound 2] | 20 | – | – | – | – |
| C=C[C@@]1(C)CC(=O)[C@]2(O)[C@@]3(C)[C@@H](O)CCC(C)(C)[C@@H]3[C@H](O)[C@H](OC(=O)[C@H](O)CO)[C@@]2(C)O1 [compound 7] | 27 | 17 | 25 | 24 | wesentlich besser erniedrigt als die anderen Substanzen der Erfindung |
| C=C[C@@]1(C)CC(=O)[C@]2(O)[C@@]3(C)[C@@H](O)CCC(C)(C)[C@@H]3[C@H](O)[C@H](OC(=O)COCC)[C@@]2(C)O1 [compound 1] | 31 | – | – | – | – |
| C=C[C@@]1(C)CC(=O)[C@]2(O)[C@@]3(C)[C@@H](OC(=O)COC=O)CCC(C)(C)[C@@H]3[C@H](O)[C@H](OC(=O)COC=O)[C@@]2(C)O1 [compound 5] | 26 | – | – | – | – |
